Like-named read-outs stand apart in the source and are kept apart here.

For data set [1] the following is noted: International Publication No. WO03/106439; cited from earlier work.
For data set [2] the following is noted: [^11C]-labeled, rats; cited from earlier work.
For data set [3] the following is noted: [^125I]-labeled compounds, normal mice, brain; cited from earlier work.
The target of data set [4] is aggregated Aβ (amyloid) from Aβ1-42 (Homo sapiens, UniProt P05067). From the text:
Affinity of the present compounds with amyloid was examined by the following in vitro binding tests.

Sequence of aggregated Aβ (amyloid) from Aβ1-42 (P05067 672-713): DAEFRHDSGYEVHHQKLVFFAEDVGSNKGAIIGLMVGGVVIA

Regarding `CC(=C(C#N)C#N)c1ccc2cc(N(C)CCF)ccc2c1` [FDDNP, 2-(1-{6-[(2-fluoroethyl)(methyl)amino]-2-naphthyl}ethylidene)malononitrile], the “reverse mutation test result” value in data set [1] was “positive”.

In the case of `CN(C)c1ccc(-c2cn3cc(I)ccc3n2)cc1` [IMPY, 6-iodo-2-[4′-(N,N-dimethylamino)phenyl]imidazo[1,2-a]pyridine], the “reverse mutation test result” value in data set [1] is given as “positive”.

In the case of `CNc1ccc(/C=C/c2ccc(O)cc2)cc1` [SB-13, (E)-4-methylamino-4′-hydroxystilbene], in data set [2], the “clearance from normal tissues” value is listed as “it cannot be said that the clearance is sufficiently fast”.

Take `CN(C)c1ccc(-c2nc3ccc(I)cc3s2)cc1` [TZDM, 6-iodo-2-[4′-(N,N-dimethylamino)phenyl]benzothiazole]: the “clearance from normal tissues” value in data set [3] was “insufficient in clearance from normal tissues”.

As to `COc1ccc2nc(-c3ccc([125I])cc3)cn2c1` [[^125I]-2 (4′-iodophenyl)-6-methoxyimidazo[1,2-a]pyridine], the “radioactive count specifically attached to amyloid (A−B) versus concentration of amyloid” value in data set [4] (amyloid 25, 62.5, 250, 625 and 1000 nmol/L, 22° C., 3 hours, non-specific count B subtracted) is “increase proportionally to the concentration of amyloid”. Further, in data set [4] (conclusion from in vitro binding test), the “capability of binding to amyloid” value was “highly capable of binding to amyloid”.

Take `CN(C)c1ccc(/C=C/c2ccc(I)cc2)cc1` [m-I-SB, (E)-4-dimethylamino-4′-iodostilbene]: the “clearance from normal tissues” value in data set [3] is “insufficient in clearance from normal tissues”.
